This passage reports IC50, EC50 and AC50 results from ChEMBL document CHEMBL1201862, “PubChem BioAssay data set” (2004).

Molecules are shown by their SMILES. Activity calls are given as the source filed them. A value given as a limit tells only on which side of the number the result lay.

Some targets named below: Cytochrome P450 2D6 (Homo sapiens, UniProt P10635); Cytochrome P450 3A4 (Homo sapiens, UniProt P08684); Cytochrome P450 2C9 (Homo sapiens, UniProt P11712).
Experiment [1] addresses T1, Polyadenylate-binding protein 1 (Homo sapiens, UniProt P11940). The experiment in a line: PABP1 MLLE–PAM2 interaction inhibitors, dose response, miRNA deadenylation inhibitor project, biochemical, fluorescence polarization, Cy5-PAM2 peptide, secondary (AID 602260). The format is functional. The conditions noted are these: read-out: IC50_Mean.
Experiment [2] addresses T1, Polyadenylate-binding protein 1. The experiment in a line: PABP1 MLLE–PAM2 binding inhibitor potency, dose response, biochemical, fluorescence polarization, FITC-PAM2 peptide (AID 602259). The experiment is classed as functional. The settings on record: read-out: IC50_Mean.
For experiment [3], the target named is T2, Carboxy-terminal domain RNA polymerase II polypeptide A small phosphatase 1 (Homo sapiens, UniProt Q9GZU7).
T2 sequence (Q9GZU7 whole entry): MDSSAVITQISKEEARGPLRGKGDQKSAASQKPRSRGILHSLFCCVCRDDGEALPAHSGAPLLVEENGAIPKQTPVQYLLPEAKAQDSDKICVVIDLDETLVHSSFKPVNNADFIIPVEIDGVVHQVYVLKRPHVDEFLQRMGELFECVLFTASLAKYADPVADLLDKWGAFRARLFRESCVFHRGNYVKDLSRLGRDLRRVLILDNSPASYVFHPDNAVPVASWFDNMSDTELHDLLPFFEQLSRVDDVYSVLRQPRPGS
The experiment in a line: inhibitors of CTDSP1, concentration-response testing, biochemical assay, absorbance-based, actives from ultra-high-throughput screening (AID 540297). The experiment is classed as functional.

In experiment [4] the target is Luciferin 4-monooxygenase (Photinus pyralis, UniProt P08659). The experiment in a line: firefly luciferase enzyme inhibitors, dose response, biochemical, luminescence (AID 1891).
Experiment [5] is described as follows: Luminescence Cell-Based Dose Confirmation HTS to Identify Inhibitors of Platelet Dense Granule Release. [Related pubchem assays: 1663 (Primary HTS), 1678 (Summary of Project)]. The format is functional.
The target in the next experiment is Nonstructural protein 1 (Influenza A virus, UniProt Q194T2). The experiment is classed as functional, Influenza A virus (A/California/07/2009(H1N1)).
A short description of experiment [6]: inhibitors of firefly luciferase expression or activity, dose response, H4 neuroglioma cells, luminescence (AID 1990). The experiment is classed as functional, cell-based.
Experiment [7] in a line: Luminescence Cell-Based Dose Response HTS to Identify Inhibitors of 5'UTR Stem-Loop Driven Prion Protein mRNA Translation in H4 Neuroglioblastoma Cells. [Related pubchem assays: 1827 (Project Summary), 1813 (Primary HTS)]. The experiment is classed as functional.
The nature of experiment [8]: inhibitors of SNCA 5'UTR-driven reporter translation, confirmation, H4 neuroglioma cells, luminescence (AID 1988). The format is functional, cell-based.
In another experiment the test system is INS1. Kind of experiment: beta cell apoptosis inhibitors, cytokine rescue, dose response, luminescence, retest (AID 449756).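 Note: cell death triggered by IL-1 beta plus TNF-alpha plus IFN-gamma mixture; protective hits raise ATP signal compared with cytokine alone wells.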 The format is functional, cell-based. The settings on record: Rattus norvegicus.
The nature of the next experiment: cells. The format is functional.
Experiment [9] deals with T3, Heat shock factor protein 1 (Mus musculus, UniProt P38532).
T3 sequence (P38532 whole entry): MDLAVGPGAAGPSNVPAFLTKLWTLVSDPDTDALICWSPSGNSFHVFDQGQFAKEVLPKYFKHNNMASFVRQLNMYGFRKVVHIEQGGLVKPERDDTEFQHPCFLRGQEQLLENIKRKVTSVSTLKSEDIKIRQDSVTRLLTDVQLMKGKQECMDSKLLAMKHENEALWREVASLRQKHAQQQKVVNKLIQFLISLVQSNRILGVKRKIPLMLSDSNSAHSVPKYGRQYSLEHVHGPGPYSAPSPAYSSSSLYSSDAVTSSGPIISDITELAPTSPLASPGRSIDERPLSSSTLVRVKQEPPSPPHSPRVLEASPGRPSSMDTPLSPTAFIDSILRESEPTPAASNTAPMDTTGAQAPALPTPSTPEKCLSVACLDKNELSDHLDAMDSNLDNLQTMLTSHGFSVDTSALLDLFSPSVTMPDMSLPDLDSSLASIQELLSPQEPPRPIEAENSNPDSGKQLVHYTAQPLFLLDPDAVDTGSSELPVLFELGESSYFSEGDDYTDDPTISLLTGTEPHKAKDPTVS
The experiment in a line: HSF1 potentiators in luciferase reporter cells, confirmation, cell-based, NIH3T3, luminescence, dose retest (AID 435004).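 Note: stress induced by proteasome inhibitor MG132 added 30 min after compound; luciferase reporter driven by HSF1 response element in NIH3T3 cells; actives raise luminescence as potentiators of the MG132 stress response.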 The format is functional. A general note: Reporter assays use an easily measured gene product as a stand-in for the process of interest.

In the next experiment the target is T4, Protein skinhead-1 (Caenorhabditis elegans, UniProt P34707).
T4 sequence (P34707 whole entry): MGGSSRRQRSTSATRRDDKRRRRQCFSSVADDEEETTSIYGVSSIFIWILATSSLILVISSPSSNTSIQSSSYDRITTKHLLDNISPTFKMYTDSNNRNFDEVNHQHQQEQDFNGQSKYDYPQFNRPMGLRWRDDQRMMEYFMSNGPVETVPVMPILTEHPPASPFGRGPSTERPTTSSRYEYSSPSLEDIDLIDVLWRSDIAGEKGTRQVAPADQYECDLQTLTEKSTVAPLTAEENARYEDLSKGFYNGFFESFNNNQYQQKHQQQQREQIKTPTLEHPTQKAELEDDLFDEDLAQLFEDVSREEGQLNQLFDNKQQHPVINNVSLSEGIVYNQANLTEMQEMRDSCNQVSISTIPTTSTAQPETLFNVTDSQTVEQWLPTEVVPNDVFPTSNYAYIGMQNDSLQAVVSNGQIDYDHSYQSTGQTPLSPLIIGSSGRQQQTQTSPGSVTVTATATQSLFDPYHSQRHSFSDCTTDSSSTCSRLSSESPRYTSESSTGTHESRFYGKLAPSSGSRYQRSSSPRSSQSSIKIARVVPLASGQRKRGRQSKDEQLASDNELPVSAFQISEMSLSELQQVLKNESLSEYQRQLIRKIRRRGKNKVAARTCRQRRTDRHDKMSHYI
The format is functional.

A short description of experiment [10]: Luminescence Cell-Based Dose Retest to Confirm Inhibitors of Cancer Stem Cells. [Related pubchem assays (depositor defined):AID2717, AID2721]. The format is functional. The conditions noted are these: Homo sapiens.
The target of experiment [11] is T5, RNA-binding protein pos-1 (Caenorhabditis elegans, UniProt G5EF15).
T5 sequence (G5EF15 whole entry): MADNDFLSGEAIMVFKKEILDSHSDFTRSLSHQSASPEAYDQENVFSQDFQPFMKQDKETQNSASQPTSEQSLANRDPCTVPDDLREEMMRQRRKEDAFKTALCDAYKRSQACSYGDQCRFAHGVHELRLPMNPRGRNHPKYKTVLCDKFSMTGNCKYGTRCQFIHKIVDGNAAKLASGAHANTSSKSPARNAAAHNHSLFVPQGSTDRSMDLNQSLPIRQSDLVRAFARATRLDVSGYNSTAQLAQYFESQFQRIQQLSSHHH
Kind of experiment: inhibitors of POS-1/mex-3 RNA binding, dose response, biochemical, fluorescence polarization (AID 1964).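 Note: purified POS-1 fused to maltose binding protein made in E. coli; potency of compounds blocking POS-1 binding to fluorescent RNA.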 In general terms: Fluorescence polarisation rises when a labelled molecule tumbles more slowly, as on binding a larger partner.

T1 sequence (P11940 whole entry): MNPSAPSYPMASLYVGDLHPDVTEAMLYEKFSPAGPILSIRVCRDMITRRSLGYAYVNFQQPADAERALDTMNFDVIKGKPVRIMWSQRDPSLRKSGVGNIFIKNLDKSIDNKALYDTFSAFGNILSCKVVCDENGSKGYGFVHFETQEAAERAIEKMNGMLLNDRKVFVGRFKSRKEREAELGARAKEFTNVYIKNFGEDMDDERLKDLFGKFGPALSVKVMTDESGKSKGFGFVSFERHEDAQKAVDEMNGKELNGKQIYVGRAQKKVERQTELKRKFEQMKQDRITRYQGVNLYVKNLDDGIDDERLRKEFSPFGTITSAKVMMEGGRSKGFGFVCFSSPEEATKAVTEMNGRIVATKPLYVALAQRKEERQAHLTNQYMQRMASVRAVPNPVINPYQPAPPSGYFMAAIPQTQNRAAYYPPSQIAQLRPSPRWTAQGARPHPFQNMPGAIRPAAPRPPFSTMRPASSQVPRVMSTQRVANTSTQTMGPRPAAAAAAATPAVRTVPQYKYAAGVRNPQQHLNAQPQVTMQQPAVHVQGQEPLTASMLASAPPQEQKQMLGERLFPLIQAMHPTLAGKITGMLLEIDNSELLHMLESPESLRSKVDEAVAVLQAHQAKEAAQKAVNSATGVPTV
Chain of Luciferin 4-monooxygenase (P08659 whole entry): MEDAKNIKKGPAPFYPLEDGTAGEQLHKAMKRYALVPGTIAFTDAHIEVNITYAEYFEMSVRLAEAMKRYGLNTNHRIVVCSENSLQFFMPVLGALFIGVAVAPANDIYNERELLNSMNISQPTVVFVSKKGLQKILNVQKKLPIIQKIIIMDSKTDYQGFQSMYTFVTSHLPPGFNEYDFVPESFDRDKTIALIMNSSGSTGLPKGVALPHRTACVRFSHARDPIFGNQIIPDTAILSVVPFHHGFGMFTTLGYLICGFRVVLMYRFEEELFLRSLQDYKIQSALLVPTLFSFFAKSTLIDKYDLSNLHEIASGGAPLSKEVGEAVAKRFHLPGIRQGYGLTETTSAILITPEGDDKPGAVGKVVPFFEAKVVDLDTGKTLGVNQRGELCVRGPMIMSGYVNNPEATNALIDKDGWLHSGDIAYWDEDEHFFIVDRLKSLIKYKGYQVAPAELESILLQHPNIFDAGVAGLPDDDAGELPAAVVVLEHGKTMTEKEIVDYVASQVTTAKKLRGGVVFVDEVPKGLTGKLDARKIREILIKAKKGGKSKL
Chain of Nonstructural protein 1 (Q194T2 whole entry): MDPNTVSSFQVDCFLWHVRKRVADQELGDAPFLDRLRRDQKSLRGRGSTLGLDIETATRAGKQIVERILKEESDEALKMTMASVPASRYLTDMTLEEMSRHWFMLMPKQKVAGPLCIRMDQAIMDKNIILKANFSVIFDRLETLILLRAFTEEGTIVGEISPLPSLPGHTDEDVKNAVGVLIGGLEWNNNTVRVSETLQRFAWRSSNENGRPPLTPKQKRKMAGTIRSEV
Chain of Cytochrome P450 2D6 (P10635 whole entry): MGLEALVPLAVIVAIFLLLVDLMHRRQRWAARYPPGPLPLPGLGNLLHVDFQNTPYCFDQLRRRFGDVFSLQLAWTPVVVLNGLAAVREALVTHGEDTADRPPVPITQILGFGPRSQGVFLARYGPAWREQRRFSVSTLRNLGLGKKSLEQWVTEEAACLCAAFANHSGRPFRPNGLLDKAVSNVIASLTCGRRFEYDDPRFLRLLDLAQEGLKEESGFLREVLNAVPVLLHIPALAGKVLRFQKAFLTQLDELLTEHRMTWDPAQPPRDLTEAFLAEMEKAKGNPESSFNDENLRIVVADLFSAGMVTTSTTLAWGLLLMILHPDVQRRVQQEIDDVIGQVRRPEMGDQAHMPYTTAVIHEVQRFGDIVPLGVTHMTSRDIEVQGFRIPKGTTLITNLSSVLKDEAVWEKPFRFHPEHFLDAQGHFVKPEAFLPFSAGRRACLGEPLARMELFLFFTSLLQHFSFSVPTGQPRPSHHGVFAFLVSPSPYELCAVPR
Chain of Cytochrome P450 2C9 (P11712 whole entry): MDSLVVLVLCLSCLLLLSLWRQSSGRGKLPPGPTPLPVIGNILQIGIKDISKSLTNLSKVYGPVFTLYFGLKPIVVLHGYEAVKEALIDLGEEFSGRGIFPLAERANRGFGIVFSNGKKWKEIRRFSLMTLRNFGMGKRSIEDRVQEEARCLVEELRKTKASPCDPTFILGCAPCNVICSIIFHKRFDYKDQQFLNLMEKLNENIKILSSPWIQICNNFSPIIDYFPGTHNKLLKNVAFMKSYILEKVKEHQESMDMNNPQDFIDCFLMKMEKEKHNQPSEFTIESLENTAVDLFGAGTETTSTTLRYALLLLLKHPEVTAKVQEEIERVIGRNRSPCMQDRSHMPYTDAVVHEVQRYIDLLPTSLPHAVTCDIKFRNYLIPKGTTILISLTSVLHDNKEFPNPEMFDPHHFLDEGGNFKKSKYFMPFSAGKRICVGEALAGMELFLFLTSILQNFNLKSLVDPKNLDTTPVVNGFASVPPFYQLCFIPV
Chain of Cytochrome P450 3A4 (P08684 whole entry): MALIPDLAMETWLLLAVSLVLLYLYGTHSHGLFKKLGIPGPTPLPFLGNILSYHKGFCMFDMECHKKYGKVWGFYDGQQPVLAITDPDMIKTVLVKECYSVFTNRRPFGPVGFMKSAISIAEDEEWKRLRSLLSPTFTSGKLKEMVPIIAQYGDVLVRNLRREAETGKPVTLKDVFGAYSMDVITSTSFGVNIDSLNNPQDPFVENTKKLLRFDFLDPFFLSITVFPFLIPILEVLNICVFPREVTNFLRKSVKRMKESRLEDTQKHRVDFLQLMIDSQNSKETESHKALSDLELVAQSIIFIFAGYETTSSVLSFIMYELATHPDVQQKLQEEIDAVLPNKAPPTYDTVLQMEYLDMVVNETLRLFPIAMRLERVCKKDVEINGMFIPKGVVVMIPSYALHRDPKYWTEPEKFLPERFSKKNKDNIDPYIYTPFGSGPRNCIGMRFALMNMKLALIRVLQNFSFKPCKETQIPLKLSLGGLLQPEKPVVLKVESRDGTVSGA

For the compound `COC(=O)c1c(NC(=O)C2C3CCC(C3)C2C(=O)O)sc2c1CCCCC2` (stereo not drawn), the IC50 in experiment [1] and in experiment [2] was > 66 µM (inactive) in each case.

Turning to `O=C(CSc1nnc(CNC(=O)c2c(F)cccc2F)o1)NCc1ccco1`, in experiment [3], the IC50 is 14 µM (active).

The term EC50 denotes the concentration needed to bring the measured effect to its halfway point. `COc1ccc(NC(=O)c2cc(S(=O)(=O)N3CCc4ccccc43)cn2C)cc1`: the EC50 in experiment [4] and in experiment [5] was > 112 µM (not active) each time.

As to `CC(C)c1nnc(NC(=O)CS(=O)(=O)Cc2ccccc2)s1`, the IC50 in experiment [1] and in [2] was > 66 µM (inactive) each time.

With `CCCCN(C(=O)C1CC(=O)N(c2ccc(OC)cc2OC)C1)c1c(N)n(CC(C)C)c(=O)[nH]c1=O` (stereo not drawn), the EC50 in experiment [4] was > 112 µM (not active); in [5] it was 17.5 µM (active).

As for `CSCCC1NC(=O)N(CC(=O)Nc2ccc(Br)cc2Br)C1=O` (stereo not drawn), the EC50 in experiment [4] and in [5] was > 112 µM (not active) in each case.

`Nc1nn(-c2ccccc2)c(N)c1N=Nc1ccccc1F`: the IC50 on Nonstructural protein 1 is > 100 µM (active).

With `O=c1c2ccccc2nc(/C=C/c2ccc(F)cc2)n1-c1ccccn1`, the EC50 in experiment [4] and in [5] was > 112 µM (not active) in each case.

What is called AC50 is the midpoint of the concentration-response curve, whichever way the signal moves. As to `Cc1nc(C(F)(F)F)c(C(=O)NN=C(N)c2ccccn2)s1`, the EC50 in experiment [6] is 11.5 µM (active); in [7], > 120 µM (not active); in experiment [8], > 120 µM (not active). For the same compound, the IC50 on Nonstructural protein 1 is 8.03 µM (active). In addition, the AC50 in the experiment with INS1 is 5.45 µM (active).

`CCOC(=O)c1nc(Nc2ccc(N3CCC(C)CC3)cc2)c2ccccc2n1`: the IC50 on Nonstructural protein 1 is 26.9 µM (active).

On to `Cc1onc(-c2c(Cl)cccc2Cl)c1C(=O)N1CCc2ccccc2C1`, for which the EC50 in experiment [4] and in [5] was > 112 µM (not active) each time. Further, the AC50 at Cytochrome P450 2D6 is 22.4 µM (inconclusive).

For `O=C(COc1ccc(-n2cnnn2)cc1)Nc1ccccc1Cl`, in [3], the IC50 was 11.4 µM (active).

As for `CCCc1nc2sc3c(O)ncnc3c2c2c1CCCC2`, the EC50 in [4] and in experiment [5] was > 112 µM (not active) in each case.

`CC1CCN(C(=O)COC(=O)CCc2c[nH]c3ccccc23)CC1`: the IC50 in “cells” was 2.53 µM (active).

`Cc1cc(NC(=O)CSC2=NCCS2)no1`: the IC50 in experiment [1] and in experiment [2] was > 66 µM (inactive) in each case.

On to `O=C(NCc1ccncc1)/C(=C/c1cccc([N+](=O)[O-])c1)NC(=O)c1ccccc1`, for which the EC50 in experiment [4] and in experiment [5] was > 112 µM (not active) each time.

As to `O=C(CN1C(=O)N/C(=C\c2ccccc2OCc2ccc(C(=O)O)cc2)C1=O)Nc1ccc(F)cc1`, the IC50 in experiment [3] was 9.09 µM (active).

Consider `Cc1onc(-c2ccccc2Cl)c1C(=O)NCCn1c(C)cc2ccccc21`, for which the IC50 on Nonstructural protein 1 is > 100 µM (active).

Consider `O=C(OCc1ccccn1)c1ccc(COc2ccccc2Cl)o1`, for which, in “cells”, the IC50 was 35.1 µM (active). Also, the AC50 at Cytochrome P450 2D6 was 17.8 µM (inconclusive); on Cytochrome P450 3A4, 31.6 µM (inconclusive); on Cytochrome P450 2C9, 39.8 µM (inconclusive).

Regarding `O=C(COC(=O)c1cc(-c2cccs2)nc2ccccc12)NCc1ccco1`, the IC50 in experiment [3] was 9.73 µM (active).

With `Cc1ccc(NC(=O)Nc2cccc(Cl)c2)c(C(=O)O)c1`, the EC50 in [4] was 17.2 µM (active); in [5], > 112 µM (not active).

`O=S(=O)(NCCc1csc(-c2cccnc2)n1)c1ccc2c(c1)OCCO2`: the concentration giving a half-maximal response (EC50) in [6] is > 120 µM (not active); in experiment [7], 16.4 µM (active); in experiment [8] it was > 120 µM (not active); in experiment [4] it was > 112 µM (not active); in experiment [5] it was > 112 µM (not active).

For the compound `N#Cc1nc(-c2cccs2)oc1NCCc1ccccc1`, in “cells”, the IC50 was 7.45 µM (active).

On to `Cc1nc2sccn2c(=O)c1S(=O)(=O)N1CCN(c2ccc(F)cc2)CC1`, for which the EC50 in [4] and in experiment [5] was > 112 µM (not active) in each case.

For the compound `COc1ccc(NS(=O)(=O)c2ccc(NC(=S)NC(=O)c3cccc(F)c3)cc2)nn1`, the IC50 in [1] and in experiment [2] was > 66 µM (inactive) each time.

As to `CCCCN=C(S)Nc1ccc(OC)nc1`, the values for the IC50 in [1] and in experiment [2] were > 66 µM (inactive) and 43.7 µM (inactive), respectively.

Consider `O=C1NC(c2ccccn2)Nc2sc3c(c21)CCC3` (stereo not drawn), for which the IC50 on Nonstructural protein 1 was 54.2 µM (active).

Take `c1ccc(-c2cn(C[C@H]3CC[C@H](Cn4cc(-c5ccccn5)nn4)O3)nn2)nc1`: the IC50 at Nonstructural protein 1 is 3.19 µM (active).

Take `CCc1c(O)n(-c2ccccc2C)c(SCC(=O)Nc2ccccc2OC)nc1=O`: the IC50 in experiment [1] and in [2] was > 66 µM (inactive) throughout.

For the compound `CSc1cc(-c2ccco2)oc1C(=O)c1ccco1`, the EC50 in experiment [9] was > 260 µM (inactive). Moreover, on Protein skinhead-1, the IC50 is > 100 µM (inactive).

Turning to `O=C(O)C1CCCN1c1nc(Cl)ccc1[N+](=O)[O-]` (stereo not drawn), the IC50 in experiment [1] and in experiment [2] was > 66 µM (inactive) each time.

In the case of `CO/N=C/CC(=O)c1ccc(OC)cc1`, the IC50 in “cells” is 22.9 µM (active).

`CCSc1ncc(/C=N/Nc2ccc(Cl)cc2)n1C`: the AC50 in [10] was 3.3 µM (active). Moreover, the IC50 in the experiment “cells” is > 50 µM (active).

In the case of `Cc1cc(C(=O)N/N=C/c2cccc([N+](=O)[O-])c2O)[nH]n1`, the IC50 at Nonstructural protein 1 was 7.33 µM (active).

As to `COc1cccc(/C=N/NC(=O)c2ccc(O)nn2)c1O`, in experiment [11], the EC50 was 31.7 µM (active).

As for `Cc1nc2ccccc2n1/C(=N/S(=O)(=O)c1ccc(Br)cc1)c1ccccc1`, the EC50 in experiment [4] and in [5] was > 112 µM (not active) throughout.

For `CC(C)[N+](C)(CCC(C(N)=O)(c1ccccc1)c1ccccc1)C(C)C` [ISOPROPAMIDE IODIDE], in [3], the IC50 was 3.27 µM (active).
